# From US20050002876A1, “Oral care methods and products” (priority 2003, published 2005)
# Tested on: human umbilical vein endothelial cells (HUVEC)
# Experiment: Copper-induced IL-8 release from HUVEC (IL-8 ELISA)
# Format: cell-based
Compound,"IL-8 secretion as compared to controls incubated with water (50 μM CuCl2, 24 hours) [fold]","IL-8 secretion caused by CuCl2 (50 μM CuCl2 + 50, 100, 150 or 250 μM Syprine trientine hydrochloride, 24 hours, serum-free medium)"
[Cl][Cu][Cl] [CuCl2],> 2,–
"NCCNCCNCCN [trientine, N,N′-bis(2-aminoethyl)-1,2-ethanediamine]",–,significantly inhibited copper-induced endothelial cell IL-8 secretion
